Among the data in patent EP4768484A1, “HETEROCYCLIC FUSED RING COMPOUND, AND COMPOSITION AND USE THEREOF” (Shenzhen TargetRx, Inc., priority 2023, dated 2025) are IC50 values, retold here.

Holding throughout (format): cell-based
The test system of assay [1] is Ba/F3 parental cells. As to the kind of experiment: Cell growth inhibitory activity assay (CellTiter-Glo), Ba/F3 parental cells. The following applies: Mus musculus, BaF3, 72 h, CTG cell viability, read-out: IC50 Ba/F3 BCR-ABL1 Parental. An outline of the steps: (§1)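 IC50 values come from nonlinear fitting of % inhibition against log concentration, with viability taken as ATP content by CellTiter-Glo. Parental Ba/F3 or Ba/F3 monoclonal lines expressing lentivirally introduced mutant BCR-ABL1 were dosed for 72 h; controls included 0.5% DMSO wells and a T0 plate.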
(In ATP-based viability assays light output follows the ATP content of the culture.)

The target of assay [2] is T1, Ba/F3 BCR-ABL1 E255V/T315I (Homo sapiens, UniProt P00519+P11274, E255V/T315I).
T1 construct: BCR (N-terminal fusion partner of the oncoprotein); expressed in transfected cells; host or cells: Ba/F3 (lentiviral transduction, monoclonal line)
As to the kind of experiment: Cell growth inhibitory activity assay (CellTiter-Glo), Ba/F3 BCR-ABL1 E255V/T315I cells. The following applies: 72 h, CTG cell viability. The gist of the method:
as §1

Assay [3] concerns the target T2, Ba/F3 BCR-ABL1 I502L (Homo sapiens, UniProt P00519+P11274, I502L).
T2 construct: BCR (N-terminal fusion partner of the oncoprotein); expressed in transfected cells; host or cells: Ba/F3 (lentiviral transduction, monoclonal line)
Briefly: Cell growth inhibitory activity assay (CellTiter-Glo), Ba/F3 BCR-ABL1 I502L cells. Particulars: 72 h, CTG cell viability. An outline of the steps:
as §1

In assay [4] the target is T3, Ba/F3 BCR-ABL1 Y253H/E255K (Homo sapiens, UniProt P00519+P11274, E255K/Y253H).
T3 construct: BCR (N-terminal fusion partner of the oncoprotein); expressed in transfected cells; host or cells: Ba/F3 (lentiviral transduction, monoclonal line)
Briefly: Cell growth inhibitory activity assay (CellTiter-Glo), Ba/F3 BCR-ABL1 Y253H/E255K cells. Particulars: 72 h, CTG cell viability. The gist of the method: as §1

Assay [5] concerns the target T4, Ba/F3 BCR-ABL1 V468F (Homo sapiens, UniProt P00519+P11274, V468F).
T4 construct: BCR (N-terminal fusion partner of the oncoprotein); expressed in transfected cells; host or cells: Ba/F3 (lentiviral transduction, monoclonal line)
As to the kind of experiment: Cell growth inhibitory activity assay (CellTiter-Glo), Ba/F3 BCR-ABL1 V468F cells. The following applies: 72 h, CTG cell viability. The gist of the method:
as §1

Assay [6] deals with K562 cells. As to the kind of experiment: Cell growth inhibitory activity assay (CellTiter-Glo), K562 cells. Particulars: Homo sapiens, 72 h, CTG cell viability. The gist of the method:
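K562 cells in logarithmic growth were counted, diluted and plated in 96-well plates, with medium-only blanks and a separate T0 plate read by CTG the following day. After overnight incubation, graded compound concentrations were added for 72 h, with 0.5% DMSO wells as growth controls. Luminescence was read on a Biotek cytation3.0, and IC50 came from nonlinear fitting in GraphPad Prism 7.0.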

In assay [7] the target is T5, Ba/F3 BCR-ABL1 A424T (Homo sapiens, UniProt P00519+P11274, A424T).
T5 construct: BCR (N-terminal fusion partner of the oncoprotein); expressed in transfected cells; host or cells: Ba/F3 (lentiviral transduction, monoclonal line)
As to the kind of experiment: Cell growth inhibitory activity assay (CellTiter-Glo), Ba/F3 BCR-ABL1 A424T cells. Particulars: 72 h, CTG cell viability. An outline of the steps: as §1

Assay [8] concerns the target T6, Ba/F3 BCR-ABL1 P465S (Homo sapiens, UniProt P00519+P11274, P465S).
T6 construct: BCR (N-terminal fusion partner of the oncoprotein); expressed in transfected cells; host or cells: Ba/F3 (lentiviral transduction, monoclonal line)
As to the kind of experiment: Cell growth inhibitory activity assay (CellTiter-Glo), Ba/F3 BCR-ABL1 P465S cells. The following applies: 72 h, CTG cell viability. The gist of the method:
as §1

The target of assay [9] is T7, Ba/F3 BCR-ABL1 T315I (Homo sapiens, UniProt P00519+P11274, T315I).
T7 construct: BCR (N-terminal fusion partner of the oncoprotein); expressed in transfected cells; host or cells: Ba/F3 (lentiviral transduction, monoclonal line)
Briefly: Cell growth inhibitory activity assay (CellTiter-Glo), Ba/F3 BCR-ABL1 T315I cells. The following applies: 72 h, CTG cell viability. The gist of the method: as §1

Assay [10] concerns the target T8, Ba/F3 BCR-ABL1 WT (Homo sapiens, UniProt P00519+P11274).
T8 construct: BCR (N-terminal fusion partner of the oncoprotein); expressed in transfected cells; host or cells: Ba/F3 (lentiviral transduction, monoclonal line)
As to the kind of experiment: Cell growth inhibitory activity assay (CellTiter-Glo), Ba/F3 BCR-ABL1 WT cells. The following applies: 72 h, CTG cell viability. The gist of the method:
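Ba/F3 lines stably transduced by lentivirus with WT or mutant BCR-ABL1, alongside untransduced parental Ba/F3, were seeded and incubated overnight at 37 °C, 5% CO2, then exposed to serially diluted compound for 72 h. Viability was read as ATP by CellTiter-Glo luminescence against a day-of-dosing T0 plate; IC50 from four-parameter nonlinear fit.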

Assay [11] has as its target T9, Ba/F3 BCR-ABL1 A337V (Homo sapiens, UniProt P00519+P11274, A337V).
T9 construct: BCR (N-terminal fusion partner of the oncoprotein); expressed in transfected cells; host or cells: Ba/F3 (lentiviral transduction, monoclonal line)
As to the kind of experiment: Cell growth inhibitory activity assay (CellTiter-Glo), Ba/F3 BCR-ABL1 A337V cells. The following applies: 72 h, CTG cell viability. The gist of the method:
as §1

The target of assay [12] is T10, Ba/F3 BCR-ABL1 T315M (Homo sapiens, UniProt P00519+P11274, T315M).
T10 construct: BCR (N-terminal fusion partner of the oncoprotein); expressed in transfected cells; host or cells: Ba/F3 (lentiviral transduction, monoclonal line)
Briefly: Cell growth inhibitory activity assay (CellTiter-Glo), Ba/F3 BCR-ABL1 T315M cells. Particulars: 72 h, CTG cell viability. An outline of the steps:
as §1

With `Cc1cc(C)nc(-n2cc3c(n2)-c2cc(-c4cc(C(=O)Nc5ccc(OC(F)(F)Cl)cc5)cc5nc6n(c45)[C@H](C)COC6)cnc2C3)n1` [T-76, (R)-N-(4-(chlorodifluoromethoxy)phenyl)-6-(2-(4,6-dimethylpyrimidin-2-yl)-2,4-dihydropyrazolo[3',4':3,4]cyclopenta[1,2-b]pyridin-7-yl)-4-methyl-3,4-dihydro-1H-benzo[4,5]imidazo[2,1-c][1,4]oxazine-8-carboxamide], the IC50 in assay [1] is greater than 1000 nM; in assay [2] it was no more than 5 nM; in assay [3] it was 5 to 50 nM; in assay [4], no more than 5 nM; in assay [5], 50 to 1000 nM; in assay [6], no more than 5 nM. Moreover, the IC50 was no more than 5 nM in [7]; 50 to 1000 nM in assay [8]; no more than 5 nM in assay [9]; no more than 5 nM in [10]; 50 to 1000 nM in assay [11]; no more than 5 nM in assay [12].
As for `C[C@@H]1COCc2nc3cc(C(=O)Nc4ccc(OC(F)(F)Cl)cc4)cc(-c4cnccn4)c3n21` [T-115, (R)-N-(4-(chlorodifluoromethoxy)phenyl)-4-methyl-6-(pyrazin-2-yl)-3,4-dihydro-1H-benzo[4,5]imidazo[2,1-c][1,4]oxazine-8-carboxamide], the IC50 in assay [1] was greater than 1000 nM; in assay [2] it was 5 to 50 nM; in assay [3], 50 to 1000 nM; in assay [4], 5 to 50 nM; in assay [5], 50 to 1000 nM; in assay [6], no more than 5 nM. Further, the IC50 is 50 to 1000 nM in assay [7]; 50 to 1000 nM in assay [8]; 5 to 50 nM in [9]; no more than 5 nM in assay [10]; 50 to 1000 nM in assay [11]; greater than 1000 nM in [12].
